In the oligonucleotide strings, read from the 5' end, every base follows the letter of its sugar. An asterisk marks phosphorothioate; unmarked linkages are phosphodiester. Other units and linkages are bracketed, terminal groups are in braces. A string of capitals states the bases alone. e = 2'-O-(2-methoxyethyl) (MOE); [5mC] = 5-methylcytosine; d = 2'-deoxy (DNA)
How the values were obtained:
follistatin = assay: Follistatin mRNA expression in HepG2 cells; assay type: cell-based, human; details: for Follistatin mRNA expression: Experiment 2, insulin treated: HepG2 cells transfected with oligomeric compound, 1 nM insulin for four hours, UTC + 1 nM insulin = 100; for Follistatin mRNA: four hours, UTC = 100
IGFBP-1 = IGFBP-1 mRNA expression in HepG2 cells; assay type: cell-based, human; details: for IGFBP1 mRNA expression: Experiment 2, insulin treated: HepG2 cells transfected with oligomeric compound, 1 nM insulin for four hours, UTC + 1 nM insulin = 100; for IGFBP1 mRNA: four hours, UTC = 100
[1] = HepG2 cells, Experiment 1, basal (no insulin)
[2] = Experiment 3, basal (no insulin), HepG2 cells, 48 hours post-transfection
[3] = Experiment 4, insulin-sensitization: HepG2 cells treated with 1 nM insulin for four hours, 48 h post-transfection, mRNA by real-time PCR
[4] = Experiment 1, basal (no insulin), HepG2, 100 nM oligomeric compound
[5] = Experiment 2, 1 nM insulin treated, HepG2, 100 nM oligomeric compound

Q: Which “Follistatin mRNA expression” value (follistatin) does the source give for “327920 (antisense eG*eA*eG*eA*e[5mC]*e[5mC]*e[5mC]*eA*eG*eT*eA*eG*e[5mC]*e[5mC]*eA*eG*eA*eT*eG*eT*eA*eG*e[5mC]*eT) [compound 327920]” here?
A: 102

Q: What about the “Follistatin mRNA” value (follistatin; [1]) of the same substance?
A: 99

Q: What about the “IGFBP1 mRNA expression” value (IGFBP-1) of the same substance?
A: 267

Q: What about the “IGFBP1 mRNA” value (IGFBP-1; [1]) of the same substance?
A: 165

Q: What does the source list for “328691 (e[5mC]*e[5mC]*e[5mC]*e[5mC]*eA*dT*d[5mC]*dT*dT*dA*dG*d[5mC]*dA*dT*d[5mC]*eT*eA*eA*eG*eG) [compound 328691]”?
A: Follistatin (% UTC) (follistatin; [2]): 93 % UTC; Follistatin (% UTC) (follistatin; [3]): 104 % UTC; IGFBP-1 (% UTC) (IGFBP-1; [2]): 105 % UTC; IGFBP-1 (% UTC) (IGFBP-1; [3]): 101 % UTC

Q: With “341805 (antisense ACCCTTATCAGTTCTCCGTCCA; all 2'-MOE, all phosphorothioate, methylation of C not given here) [compound 341805]” as the substance, how does the “Follistatin mRNA” value (follistatin; [1]) read?
A: 63

Q: What about the “IGFBP1 mRNA” value (IGFBP-1; [1]) of the same substance?
A: 105

Q: For “327911 (antisense eG*e[5mC]*eT*eA*e[5mC]*e[5mC]*eT*eG*e[5mC]*eA*e[5mC]*eT*eG*eT*eA*eA*eG*e[5mC]*eA*e[5mC]*eT*eT*eT*eT) [compound 327911]”, which “Follistatin mRNA expression” value (follistatin) is on record?
A: 71

Q: And the “Follistatin mRNA” value (follistatin; [1])?
A: 81

Q: And the “IGFBP1 mRNA expression” value (IGFBP-1)?
A: 160

Q: And the “IGFBP1 mRNA” value (IGFBP-1; [1])?
A: 157

Q: What does the source list for “327878 (antisense e[5mC]*eT*eA*eG*eT*eG*eG*eT*e[5mC]*e[5mC]*eT*eA*eA*eA*e[5mC]*eA*eT*eT*eT*e[5mC]*eA*e[5mC]) [compound 327878]”?
A: Follistatin (% UTC) (follistatin; [4]): 124 % UTC; Follistatin (% UTC) (follistatin; [5]): 150 % UTC; IGFBP-1 (% UTC) (IGFBP-1; [4]): 162 % UTC; IGFBP-1 (% UTC) (IGFBP-1; [5]): 185 % UTC

Q: “327899 (antisense e[5mC]*eA*eG*eT*eG*eA*eA*eT*eT*e[5mC]*eT*eA*e[5mC]*e[5mC]*eA*eG*eT*eG*e[5mC]*e[5mC]*eA*eT*eA) [compound 327899]” was tested. Which “Follistatin mRNA” value (follistatin; [1]) did it give?
A: 66

Q: And the “IGFBP1 mRNA” value (IGFBP-1; [1])?
A: 105

Q: “327923 (antisense eG*eA*eA*eA*eG*eA*eG*eA*e[5mC]*e[5mC]*eG*eG*eT*eT*e[5mC]*eA*e[5mC]*eT*eG*eT*eG*eA) [compound 327923]” was tested. Which “Follistatin mRNA expression” value (follistatin) did it give?
A: 106

Q: What about the “Follistatin mRNA” value (follistatin; [1]) of the same substance?
A: 86

Q: What about the “IGFBP1 mRNA expression” value (IGFBP-1) of the same substance?
A: 119

Q: What about the “IGFBP1 mRNA” value (IGFBP-1; [1]) of the same substance?
A: 116

Q: Which “Follistatin mRNA expression” value (follistatin) does the source give for “328114 (antisense eA*eA*eT*e[5mC]*eT*e[5mC]*eA*eT*eT*eT*eT*e[5mC]*eA*eT*eA*e[5mC]*eT*eT*eG*e[5mC]*eA) [compound 328114]” here?
A: 81

Q: And the “IGFBP1 mRNA expression” value (IGFBP-1)?
A: 177

Q: For “328125 (antisense eT*eA*eT*eG*eA*eA*eA*eT*eG*e[5mC]*e[5mC]*eA*eG*eA*eG*e[5mC]*eT*eG*e[5mC]*e[5mC]*eA) [compound 328125]”, which “Follistatin mRNA expression” value (follistatin) is on record?
A: 107

Q: And the “IGFBP1 mRNA expression” value (IGFBP-1)?
A: 216

Q: Which results are given for “327900 (antisense e[5mC]*eT*eG*e[5mC]*e[5mC]*eT*eG*eT*e[5mC]*eT*eG*eT*eG*e[5mC]*e[5mC]*eT*eG*e[5mC]*eT*eG*eT) [compound 327900]”?
A: Follistatin mRNA (follistatin; [1]): 111; IGFBP1 mRNA (IGFBP-1; [1]): 102

Q: “328685 (e[5mC]*eG*eG*e[5mC]*e[5mC]*dG*dG*dA*dG*d[5mC]*d[5mC]*dA*dT*dA*dG*eA*e[5mC]*eT*e[5mC]*eG; antisense) [compound 328685]” was tested. Which “Follistatin (% UTC)” value (follistatin; [2]) did it give?
A: 100 % UTC

Q: And the “Follistatin (% UTC)” value (follistatin; [3])?
A: 157 % UTC

Q: And the “IGFBP-1 (% UTC)” value (IGFBP-1; [2])?
A: 157 % UTC

Q: And the “IGFBP-1 (% UTC)” value (IGFBP-1; [3])?
A: 143 % UTC

Q: Which “Follistatin (% UTC)” value (follistatin; [2]) does the source give for “328759 (antisense eG*eA*eG*eG*eG*dA*dT*dT*dG*dT*dA*dT*dG*dA*dA*e[5mC]*eA*eT*e[5mC]*eT) [compound 328759]” here?
A: 266 % UTC

Q: And the “Follistatin (% UTC)” value (follistatin; [3])?
A: 224 % UTC

Q: What about the “IGFBP-1 (% UTC)” value (IGFBP-1; [2]) of the same substance?
A: 356 % UTC

Q: What about the “IGFBP-1 (% UTC)” value (IGFBP-1; [3]) of the same substance?
A: 212 % UTC

Q: How did the “Follistatin (% UTC)” value (follistatin; [4]) turn out when “327933 (antisense eA*eA*eG*eG*eG*eA*eT*eT*e[5mC]*e[5mC]*eT*eG*eG*eG*eA*eA*eA*eA*e[5mC]*eT*eG*eG*eA*e[5mC]) [compound 327933]” was run?
A: 112 % UTC

Q: What about the “Follistatin (% UTC)” value (follistatin; [5]) of the same substance?
A: 185 % UTC

Q: And the “IGFBP-1 (% UTC)” value (IGFBP-1; [4])?
A: 125 % UTC

Q: What about the “IGFBP-1 (% UTC)” value (IGFBP-1; [5]) of the same substance?
A: 179 % UTC

Q: With “327876 (antisense eA*eA*e[5mC]*eA*e[5mC]*eT*eG*eA*eT*eT*eT*e[5mC]*eA*eA*eA*eT*eG*eG*eT*eG*e[5mC]*eT*eA) [compound 327876]” as the substance, how does the “Follistatin (% UTC)” value (follistatin; [4]) read?
A: 104 % UTC

Q: What about the “Follistatin (% UTC)” value (follistatin; [5]) of the same substance?
A: 138 % UTC

Q: And the “IGFBP-1 (% UTC)” value (IGFBP-1; [4])?
A: 93 % UTC

Q: What about the “IGFBP-1 (% UTC)” value (IGFBP-1; [5]) of the same substance?
A: 118 % UTC

Q: With “327892 (antisense eA*e[5mC]*eT*eT*eT*e[5mC]*eG*eG*eT*eT*eA*eT*e[5mC]*eT*eA*eG*e[5mC]*eT*eT*eT*eA) [compound 327892]” as the substance, how does the “Follistatin (% UTC)” value (follistatin; [4]) read?
A: 91 % UTC

Q: And the “Follistatin (% UTC)” value (follistatin; [5])?
A: 96 % UTC

Q: What about the “IGFBP-1 (% UTC)” value (IGFBP-1; [4]) of the same substance?
A: 108 % UTC

Q: What about the “IGFBP-1 (% UTC)” value (IGFBP-1; [5]) of the same substance?
A: 139 % UTC

Q: For “327918 (antisense e[5mC]*eT*eA*eG*eT*eA*e[5mC]*eA*eT*e[5mC]*eA*eT*e[5mC]*eT*eA*eT*eA*e[5mC]*eT*eG*eT*eA) [compound 327918]”, which “Follistatin mRNA expression” value (follistatin) is on record?
A: 76

Q: What about the “Follistatin mRNA” value (follistatin; [1]) of the same substance?
A: 75

Q: What about the “IGFBP1 mRNA expression” value (IGFBP-1) of the same substance?
A: 81

Q: What about the “IGFBP1 mRNA” value (IGFBP-1; [1]) of the same substance?
A: 95

From patent publication US8178506B2, “Oligomeric compounds and compositions for use in modulation of small non-coding RNAs” (Regulus Therapeutics Inc., priority 2003, dated 2012)
